Data taken from US11400160B2, “Multifunctional conjugates” (E.P.O.S IASIS Research and Development Limited, priority 2017, dated 2022).

Tests used:
[1] = tested on: metastatic breast cancer cell lines (MCF-7, MDA-MB231, MDA-MB231TXSA); test: Cell viability / antiproliferative activity, breast cancer lines; assay type: cell-based
Description: Immortalised osteolytic metastatic breast cancer cell lines, a) hormone-dependent MCF-7 and b) hormone refractory MDA-MB231, together with the daughter line MDA-MB231TXSA were incubated with 5 gradual concentrations of compounds of the invention as described below. Cell viability was assessed with the crystal violet colorimetric assay and IC50s were evaluated.
Medium was removed from cell cultures and cells were fixed with 4% v/v formaldehyde for 5 mins at room temperature. Formalin was then removed and CV added for 10 mins at room temperature followed by several washes with dsH2O. Samples were allowed to dry overnight. The following day, 10% acetic acid was added for 15 mins and optical density at 620 nm was measured. Optical densities versus compound concentrations were plotted in graphs and IC50s estimated by linear regression analysis using the WorkOut (VictorX4) software.
MCF-7, MDA-MB231 and MDA-MB231TXSA cells were seeded in 96-well-plates and allowed to attach overnight. The following day media were replaced with fresh media containing the following compounds: Both free tetraethyl methylbisphosphonate (bpp(OEt)) and bpp(OEt) in 1:1 combination with the free chromanol and the biphosphonate conjugates were tested at 5 gradual concentrations of: 0.02, 0.04, 0.06, 0.08 and 0.1 mM.
Cells were cultured in the presence of the compounds for 72 hrs and viability was assessed on day 3 by crystal violet assay. The cell lines were selected for their high bone metastatic potential. The fluorescently transfected line MB231TXSA, derived from line MB231 is also used in animal studies (WP7).

[2] = tested on: Caspase-3 activity in MB231 breast cancer cell-line; test: Caspase-3 enzymatic activity assay; assay type: cell-based
Description: Cells were grown in 12 well-plates in the presence of IC50 concentrations of compounds of the invention or culture medium with 0.1% v/v ethanol as control and were washed with PBS and incubated with lysis buffer for 15 mins at 4° C. Lysates were centrifuged at 15000 g. 20 μl of each lysate suspension was incubated with 100 μl of protease buffer containing 10 μM of fluorescent substrate zDEVD-AFC (3 samples/lysate) for 4 hrs at room temperature. Caspase-3 enzymatic activity was measured every 1 hr by fluorescence with excitation at 405 nm and emission at 515/30 nm.
Fluorescence measurements were plotted in graphs against time and were statistically analysed by two-way ANOVA followed by Bonferroni post-tests to identify statistically significant apoptotic activities of compounds of the invention (see FIG. 3).

[3] = tested on: osteoclasts from RAW264.7 and Human PBMC; test: Resorption on pre-loaded whale dentine / osteologic slides (pit formation); assay type: cell-based, murine; conditions: for effect on differentiation and activity of osteoclasts: summary statement
From the text: Zoledronic acid was used as control.
(§1) Human peripheral blood mononuclear cells (PBMCs) and the RAW264.7 murine monocytic cell line were differentiated into osteoclast-like cells in the presence of RANKL plus M-CSF and have been used as model systems of osteoclastogenesis. Osteoclast-like cells, from Giant Cell Tumours (GCT) of bone specimens from three independent donors were used to investigate the effect of compounds of the invention on the bone resorbing activity of mature osteoclasts.
Human PBMCs were isolated from normal healthy donors isolated from the buffy coats acquired from the local Red Cross Blood Service. The cells were diluted in Hanks Balanced Salt Solution (HBSS) and separated by gradient centrifugation with Lymphoprep™. Isolated cells were resuspended in α MOD, 10% FCS, L-glutamine (2 mM), Hepes (20 mM), supplemented with M-CSF (25 ng/ml), 1α,25(OH)2 vitamin D3 (10 nM) and dexamethasone (10 nM) and plated into 96-well plates containing whale dentine slices, for the bone resorption assay or directly into wells for TRAP staining. The following day, media were removed and replaced with media as above, supplemented with RANKL (100 ng/ml) in the presence or absence of increasing concentrations of compounds of the invention. Medium and treatments were replaced every three days.
(§2) Cells were cultured in 96-well plates at a density of 1×10^4 cells/well in DMEM medium with 10% FCS, L-glutamine (2 mM) and Hepes (20 mM). Cells were allowed to attach for 4 hrs before treatment with RANKL (50 ng/ml) in the presence or absence of increasing concentrations of compounds of the invention as above. Medium and treatments were replaced on day three and TRAP activity determined on day 5. The overall number of viable cells were determined by crystal violet staining.
Whale dentine slices will be washed in extran, rinsed with distilled water, washed in 70% ethanol and dried overnight. The dentine slices mounted on stubs, carbon-coated and visualised on a Philips XL-20 scanning electron microscope, (SEM) as previously described. Images will be analysed using ImageQuant software and the area of resorption determined for each dentine slice (quadruplicate dentine slices for each treatment). Results are expected to be average resorption area +/− standard errors of the mean (SEM) and the significant differences between treatments will be determined using Students t-tests (2-tailed, unpaired).
In a separate experiment, pre-loaded bone slices (whale dentine) or commercial forms of hydroxyapatite (osteologic slides) with either free γ-tocopherol (γToc) or γ-tocopherol-bpp(OEt) (BP-γToc) and then washed away unbound drug.

Balb/c Nu/Nu mice = test: Intratibial injection of compounds, micro-CT trabecular bone volume; assay type: in vivo; conditions: 10 μl into tibial marrow space, 3 weeks, μCT; compared to the maternal BP compound; preliminary data; FIG. 8
Description: Four week old female Balb/c Nu/Nu mice were housed under pathogen free conditions, in accordance with the guidelines approved by the Institute of Medical and Veterinary Science animal ethics research committee. Mice were randomly assigned into 3 groups of 4 animals. The left tibia was wiped with 70% ethanol and a 26 gauge needle coupled to a Hamilton syringe, was inserted through the tibial plateau with the knee flexed and 10 μl of each drug injected into the marrow space. Mice were humanely killed 3 weeks post drug administration and bone morphometric parameters were assessed using high resolution micro-CT and histology.
• Group 1: Bpp(OEt) (BP) (20 μM) • Group 2: γ-Tocotrienol (20 μM) • Group 3: γ-Tocotrienol-BP conjugate (20 μM) Micro-Computer Tomography Analysis
Both the right and left tibiae of each animal were mounted in the CT specimen tube and placed securely into the SkyScan-1072 X-ray micro-CT Scanner (Aartselaar, Belgium). The program was commenced with magnification set to give scan slices of 5.2 microns. Three-dimensional (3D) images were generated using Cone-Beam reconstruction and 3D visualisation (Skyscan). Using the two dimensional (2D) images obtained from the micro-CT scan, the growth plate was identified and 750 sections, starting from the growth plate/tibial interface and moving down the tibia, were selected. […]

RAW264.7 cells = test: In vitro osteoclastogenesis of RAW264.7 (TRAP staining); assay type: cell-based, murine; conditions: RANKL-differentiated; γ-tocopherol at 1 μg/ml and 201 μg/ml; bpp(OEt) at increasing concentrations; FIG. 4
Description: as §1, §2
Osteoclast cultures established by the differentiation of RAW264.7 cells in wells were fixed and stained for tartrate resistant acid phosphatase (TRAP) as recommended by the manufacturer on days 4 and 5. TRAP positive cells were visualised by light microscopy and images taken with a digital camera.

Row | Compound | antiproliferative activity compared with bpp(OEt) ([1]; esterified compounds and 1:1 mixtures) | antiproliferative activity compared with γ-tocopherol ([1]; upon esterification of γ-tocopherol) | effect on cell viability ([1]; viability assays and IC50s, 72 hrs) | pro-apoptotic activity (Caspase-3 activity) ([2]; IC50 concentrations, two-way ANOVA with Bonferroni post-tests) | time-point at which the increased Caspase-3 activity was present ([2]; measured every 1 hr for 4 hrs) [h] | inhibition of resorption on pre-loaded substrate ([3]; pre-loaded, washed, zoledronic acid as control, FIG. 5) | effect on differentiation and activity of osteoclasts [3] | trabecular bone volume at the site of injection (Balb/c Nu/Nu mice) | osteoclastogenesis of Raw264.7 (RAW264.7 cells)
1 | CCOP(=O)(OCC)C(CCC(=O)Oc1cc2c(c(C)c1C)OC(C)(CCCC(C)CCCC(C)CCCC(C)C)CC2)P(=O)(OCC)OCC (centres unmarked) [γ-toc-bpp(OEt), γ-tocopheryl bisphosphonic ester] | increased | increased | reduced cell viability | statistically significant pro-apoptotic activities | 3 | inhibited resorption to an extent comparable with that seen with zoledronic acid | retains the inhibitory activity on osteoclast differentiation and bone resorption | significant increase in trabecular bone volume | 
2 | Cc1c(O)cc2c(c1C)O[C@](C)(CCC[C@H](C)CCC[C@H](C)CCCC(C)C)CC2 [γ-toc, γ-tocopherol, reference compound] |  |  |  |  |  |  | inhibitory effect on the differentiation and activity of osteoclasts | significant increase in trabecular bone volume | increased osteoclastogenesis
